Measurements as given in patent US20110263539A1, “SHIP 1 MODULATOR COMPOUNDS” (THE UNIVERSITY OF BRITISH COLUMBIA, priority 2006, published 2011).

What was measured:
plasma TNFα = test: Mouse endotoxemia model (Assay 6); format: in vivo, C57B16 mice; conditions: oral administration 30 min prior to LPS, 2 hrs
Method: (§1) Assay 6) Mouse endotoxemia model. 6-8 week old C57B16 mice (VCHRI Mammalian Model of Human Disease Core Facility, Vancouver, BC) were orally administered the test compound 30 min prior to an IP injection of 2 mg/kg of LPS (E. Coli serotype 0111:B4, Sigma, Oakville, Ont). Blood was drawn 2 hrs later for determination of plasma TNFα by ELISA.
as §1, with “Mouse” for “Assay 6) Mouse”, “indicated dose of AQX-016A, Compound 100 or dexamethasone or carrier” for “test compound”, “ELISA. Results are representative of 3 independent experiments. (FIGS. 7D and 9)” for “ELISA.”
AQX-016A's ability to provide protection by inhibiting inflammatory reactions in vivo was assessed in mouse models. The mouse model of endotoxic shock involves intraperitoneal (IP) injection of bacterial LPS and measurement of serum TNFα levels 2 hrs later. We orally administered AQX-016A or the steroidal drug dexamethasone to mice 30 min prior to the LPS challenge.

[1] = tested on: 100 protein kinase and phosphatase targets; test: Profiling on 100 protein kinase and phosphatase targets; format: biochemical; conditions: 2 μM final concentration
Method: Compound profiling activity was undertaken using 100 protein kinase and phosphatase targets by SignalChem (Richmond, BC, Canada. www.signalchem.com) against compound Compound 100 (2 μM final concentration). Protein kinase assays were performed in the presence of 50 μM ATP at 30° C. for 15 min. Protein phosphatase activities were determined using pNPP as substrate and were also performed at 37° C. for 15 min. The activity of the enzymes in the presence of Compound 100 was compared to that in the vehicle control and expressed as a % change in activity relative to that observed in the vehicle control. Changes in activity of <25% were not considered significant. Enzymes affected by Compound 100 are plotted in an expanded graph in FIG. 12B.

[2] = Initial toxicology studies; format: in vivo; conditions: data not shown
Excerpt: A novel paradigm for inhibiting PI3K signaling through activation of the phosphatases that negatively regulate this pathway is provided. SHIP is a particularly good target for immune/hematopoietic disorders because of its restricted expression to hematopoietic cells. Because the relative activity of phosphatases present in a cell will influence the efficacy of kinase inhibitors, as discussed by Knight and Shokat, SHIP agonists may also be used to potentiate the activation of PI3K inhibitors and promote tissue targeting of PI3K inhibitors to the ematopoietic/immune cell compartment.

Cc1cc(O)cc2c1[C@]1(C)CCC3C(C)(C)CCC[C@]3(C)[C@H]1C2 (stereo partly drawn) [Compound 100]
LPS-induced plasma/serum TNFα levels (plasma TNFα): efficiently inhibited
off-target effects [1]: minimal off-target effects
peripheral blood cell counts or bone marrow progenitor numbers [2]: do not significantly affect
